Activity calls are given as the source filed them.
What was measured:
Mus musculus [1] = test: Anticonvulsant activity against maximal electroshock-induced seizure in CD1 mouse at 100 mg/kg, po after 0.5 hrs; type: functional, organism-based; design: dose 100 mg/kg
Mus musculus [2] = test: Anticonvulsant activity against maximal electroshock-induced seizure in po dosed CF1 mouse after 1 hr; type: functional
Carbonic anhydrase 2 [3] = target: T1, Carbonic anhydrase 2 (Homo sapiens, UniProt P00918)
Description: Inhibition of human carbonic anhydrase 2 by CO2 hydration assay

[4] = target: Sodium channel protein type 2 subunit alpha (Rattus norvegicus) (UniProt P04775); test: Inhibition of rat Nav1.2 channel expressed in chinese hamster CHL1610 cells at preconditioning pulse of -107 to -67 mV up to 300 uM after 2 to 3 mins by whole-cell patch-clamp technique; type: cell-based
Rattus norvegicus [5] = test: Anticonvulsant activity against electric stimulation-induced pharmacoresistant limbic epilepsy in ip dosed Sprague-Dawley rat kindling model assessed as reduction of seizure severity and excitability administered 15 mins after last electric stimulation measured after 15 mins to 1 hr; type: functional; details: Limbic system
Mus musculus [6] = test: Anticonvulsant activity against maximal electroshock-induced seizure in CD1 mouse at 300 mg/kg, po after 0.5 hrs; type: functional, organism-based; design: dose 300 mg/kg
Mus musculus [7] = test: Anticonvulsant activity against maximal electroshock-induced seizure in CD1 mouse at 300 mg/kg, po after 4 hrs; type: functional, organism-based; design: dose 300 mg/kg
Mus musculus [8] = test: Anticonvulsant activity against maximal electroshock-induced seizure in po dosed CD1 mouse after 0.5 hrs; type: functional
Mus musculus [9] = test: Anticonvulsant activity against maximal electroshock-induced seizure in CD1 mouse at 100 mg/kg, po after 2 hrs; type: functional, organism-based; design: dose 100 mg/kg
Carbonic anhydrase 2 [10] = target: T1, Carbonic anhydrase 2; test: Inhibition of human carbonic anhydrase 2 by fluorimetric assay
Mus musculus [11] = test: Anticonvulsant activity against maximal electroshock-induced seizure in CD1 mouse at 300 mg/kg, po after 2 hrs; type: functional, organism-based; design: dose 300 mg/kg
Rattus norvegicus [12] = test: Anticonvulsant activity against maximal electroshock-induced seizure in po dosed rat; type: functional
Mus musculus [13] = test: Anticonvulsant activity against bicuculline-induced seizure in ip dosed CF1 mouse after 0.25 hrs; type: functional
Mus musculus [14] = test: Anticonvulsant activity against pentylenetetrazole-induced seizure in ip dosed CF1 mouse after 0.25 hrs; type: functional
Mus musculus [15] = test: Anticonvulsant activity against pentylenetetrazole-induced seizure in CF1 mouse assessed as increase in threshold of seizure twitch at 107 mg/kg, ip administered 15 mins before pentylenetetrazole infusion; type: functional; details: route intraperitoneal
Mus musculus [16] = test: Anticonvulsant activity against pentylenetetrazole-induced seizure in CF1 mouse assessed as increase in seizure threshold for clonus at 107 mg/kg, ip administered 15 mins before pentylenetetrazole infusion; type: functional; details: route intraperitoneal
Mus musculus [17] = test: Anticonvulsant activity against pentylenetetrazole-induced seizure in ip CF1 mouse assessed as increase in threshold of seizure twitch at ED50 administered 15 mins before pentylenetetrazole infusion; type: functional, organism-based
Mus musculus [18] = test: Anticonvulsant activity against pentylenetetrazole-induced seizure in ip dosed CF1 mouse assessed as increase in seizure threshold for clonus at ED50 administered 15 mins before pentylenetetrazole infusion; type: functional, organism-based
Mus musculus [19] = test: Anticonvulsant activity against pentylenetetrazole-induced seizure in ip dosed CF1 mouse assessed as increase in seizure threshold for clonus at TD50 administered 15 mins before pentylenetetrazole infusion; type: functional, organism-based
Mus musculus [20] = test: Anticonvulsant activity against pentylenetetrazole-induced seizure in ip dosed CF1 mouse assessed as increase in threshold of seizure twitch at TD50 administered 15 mins before pentylenetetrazole infusion; type: functional, organism-based
Rattus norvegicus [21] = test: Anticonvulsant activity against maximal electroshock-induced seizure in po dosed Sprague-Dawley rat after 2 hrs; type: functional
Rattus norvegicus [22] = test: Anticonvulsant activity against maximal electroshock-induced seizure in po dosed rat after 4 hrs; type: functional
Mus musculus [23] = test: Anticonvulsant activity against audiogenic seizures in ip dosed AGS mouse assessed as inhibition of hindlimb tonic extension administered 1 hr prior to 11 kHz sound induction; type: functional
[24] = target: Sodium channel protein type 2 subunit alpha (Rattus norvegicus, UniProt P04775); test: Inhibition of rat Nav1.2 channel expressed in chinese hamster CHL1610 cells at preconditioning pulse of -67 mV after 2 to 3 mins by whole-cell patch-clamp technique; type: cell-based
Mus musculus [25] = test: Anticonvulsant activity against picrotoxin-induced seizure in ip dosed CF1 mouse after 0.25 hrs; type: functional
Rattus norvegicus [26] = test: Anticonvulsant activity against electric stimulation-induced pharmacoresistant limbic epilepsy in Sprague-Dawley rat kindling model assessed as reduction of seizure severity and excitability at > 300 mg/kg, ip administered 15 mins after last electric stimulation; type: functional, organism-based; design: dose 300 mg/kg; details: Limbic system
Mus musculus [27] = test: Neurotoxicity in mouse assessed as motor impairment 400 mg/kg, ip by rotarod test; type: toxicity, organism-based; design: dose 400 mg/kg, route intraperitoneal; details: in vivo
Rattus norvegicus [28] = test: Anticonvulsant activity against electric stimulation-induced pharmacoresistant limbic epilepsy in Sprague-Dawley rat kindling model assessed as reduction of seizure severity and excitability at > 26 mg/kg, ip administered 15 mins after last electric stimulation; type: functional, organism-based; design: dose 26 mg/kg; details: Limbic system
Carbonic anhydrase 2 [29] = target: T1, Carbonic anhydrase 2; test: Inhibition of human carbonic anhydrase 2 at 100 uM by CO2 hydration assay
Mus musculus [30] = test: Anticonvulsant activity against maximal electroshock-induced seizure in CD1 mouse at 100 to 300 mg/kg, po after 0.5 to 8 hrs; type: functional, organism-based
[31] = Mus musculus, CF1, po, 1 h, read-out: ED50

Sodium channel protein type 2 subunit alpha, sequence (P04775 whole entry): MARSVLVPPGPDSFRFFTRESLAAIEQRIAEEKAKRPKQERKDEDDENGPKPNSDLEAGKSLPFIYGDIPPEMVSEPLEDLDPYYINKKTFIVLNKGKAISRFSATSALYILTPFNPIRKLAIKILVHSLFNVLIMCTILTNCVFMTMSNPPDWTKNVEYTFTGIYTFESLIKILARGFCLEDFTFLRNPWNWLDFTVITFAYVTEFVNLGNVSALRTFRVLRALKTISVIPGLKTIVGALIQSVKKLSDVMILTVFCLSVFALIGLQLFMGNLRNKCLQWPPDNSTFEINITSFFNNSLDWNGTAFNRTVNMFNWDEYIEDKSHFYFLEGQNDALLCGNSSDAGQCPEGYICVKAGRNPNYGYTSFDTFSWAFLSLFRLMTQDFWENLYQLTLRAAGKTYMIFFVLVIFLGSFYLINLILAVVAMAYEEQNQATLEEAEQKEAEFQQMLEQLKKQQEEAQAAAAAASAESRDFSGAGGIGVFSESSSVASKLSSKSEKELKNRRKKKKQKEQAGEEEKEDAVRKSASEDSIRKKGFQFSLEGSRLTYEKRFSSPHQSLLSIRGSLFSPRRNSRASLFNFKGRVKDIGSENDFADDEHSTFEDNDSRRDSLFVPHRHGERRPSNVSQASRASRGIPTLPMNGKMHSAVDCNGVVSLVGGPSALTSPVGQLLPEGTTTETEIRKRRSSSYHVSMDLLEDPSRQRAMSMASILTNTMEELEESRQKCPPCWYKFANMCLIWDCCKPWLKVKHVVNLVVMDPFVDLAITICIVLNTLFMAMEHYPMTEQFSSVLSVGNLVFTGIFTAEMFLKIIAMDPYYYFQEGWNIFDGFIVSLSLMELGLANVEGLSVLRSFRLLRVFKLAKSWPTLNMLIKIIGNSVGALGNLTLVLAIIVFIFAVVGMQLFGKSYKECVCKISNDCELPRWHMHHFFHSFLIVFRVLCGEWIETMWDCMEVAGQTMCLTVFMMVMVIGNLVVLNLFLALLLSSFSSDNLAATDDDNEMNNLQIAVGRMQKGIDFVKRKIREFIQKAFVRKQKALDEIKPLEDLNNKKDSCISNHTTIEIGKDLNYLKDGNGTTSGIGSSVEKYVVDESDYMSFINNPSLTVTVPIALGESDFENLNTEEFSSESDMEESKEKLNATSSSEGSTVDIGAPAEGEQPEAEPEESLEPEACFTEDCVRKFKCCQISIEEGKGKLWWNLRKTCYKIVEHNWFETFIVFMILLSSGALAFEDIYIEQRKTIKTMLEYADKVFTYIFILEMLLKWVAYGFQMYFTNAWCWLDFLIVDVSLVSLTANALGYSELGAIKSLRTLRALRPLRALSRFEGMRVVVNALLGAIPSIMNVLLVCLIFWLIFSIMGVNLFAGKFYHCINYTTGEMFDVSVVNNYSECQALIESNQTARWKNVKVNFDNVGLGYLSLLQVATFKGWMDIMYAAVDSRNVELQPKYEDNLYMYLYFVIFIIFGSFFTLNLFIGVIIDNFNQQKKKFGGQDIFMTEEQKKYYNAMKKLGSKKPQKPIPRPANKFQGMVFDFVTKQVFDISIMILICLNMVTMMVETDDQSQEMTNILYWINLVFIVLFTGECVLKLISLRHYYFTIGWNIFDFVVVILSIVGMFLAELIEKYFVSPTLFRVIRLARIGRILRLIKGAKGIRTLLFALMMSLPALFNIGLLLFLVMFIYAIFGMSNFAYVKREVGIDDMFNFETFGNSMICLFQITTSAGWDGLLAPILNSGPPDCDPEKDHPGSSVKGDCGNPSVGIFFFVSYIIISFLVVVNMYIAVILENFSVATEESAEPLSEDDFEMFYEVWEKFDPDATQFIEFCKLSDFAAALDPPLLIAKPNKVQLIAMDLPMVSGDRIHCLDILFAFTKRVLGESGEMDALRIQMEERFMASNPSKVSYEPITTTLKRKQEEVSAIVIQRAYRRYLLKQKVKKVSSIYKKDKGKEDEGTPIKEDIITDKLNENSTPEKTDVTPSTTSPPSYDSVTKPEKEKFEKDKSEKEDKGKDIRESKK
Sodium channel protein type 2 subunit alpha (Rattus norvegicus), sequence (P04775 whole entry, looked up): as the sequence (P04775 whole entry) above

NS(=O)(=O)NCc1csc2ccc(F)cc12
Activity (Mus musculus [1]): inactive | ED50 (Mus musculus [2]; [31]): 231 mg/kg

CC(NS(N)(=O)=O)c1csc2ccccc12 (racemic)
IC50 (Carbonic anhydrase 2 [3]): 130 µM

NCC1(CC(=O)O)CCCCC1
inhibition [4]: inactive

CCC1(C)CC(=O)NC1=O (stereo not drawn)
Activity (Rattus norvegicus [5]): inactive

NS(=O)(=O)NCc1ccccc1
Activity (Mus musculus [1]): Active | Activity (Mus musculus [6]): Active | Activity (Mus musculus [7]): Active | ED50 (Mus musculus [8]): 440 mg/kg

NS(=O)(=O)NCc1csc2ccc(Cl)cc12
Activity (Mus musculus [1]): inactive | Activity (Mus musculus [9]): inactive | Activity (Mus musculus [6]): inactive | IC50 (Carbonic anhydrase 2 [10]): 8.4 µM

CC1(C)O[C@@H]2[C@@H](CO[C@@]3(COS(N)(=O)=O)OC(C)(C)O[C@@H]23)O1 [TOPIRAMATE]
Activity (Mus musculus [11]): inactive | ED50 (Mus musculus [2]): 43.8 mg/kg | ED50 (Rattus norvegicus [12]): 6.6 mg/kg | ED50 (Mus musculus [13]): >500 mg/kg | ED50 (Mus musculus [14]): >500 mg/kg | Activity (Mus musculus [15]): 0% | Activity (Mus musculus [16]): 0% | Activity (Mus musculus [17]): inactive | Activity (Mus musculus [18]): inactive | Activity (Mus musculus [19]): inactive | Activity (Mus musculus [20]): inactive | ED50 (Rattus norvegicus [21]): 6.6 mg/kg | ED50 (Rattus norvegicus [22]): 53.5 mg/kg | ED50 (Mus musculus [23]): 4.2 mg/kg | IC50 [24]: 97 µM

CCCC(CCC)C(=O)O [VALPROIC ACID]
ED50 (Mus musculus [25]): > 200 mg/kg | Activity (Rattus norvegicus [26]): Active

O=C1NC(=O)C(c2ccccc2)(c2ccccc2)N1 [PHENYTOIN]
Activity (Rattus norvegicus [5]): Active | IC50 [24]: 22 µM

Cn1cc(CNS(N)(=O)=O)c2ccccc21
Activity (Mus musculus [1]): inactive | Activity (Mus musculus [9]): inactive | Activity (Mus musculus [6]): Active | ED50 (Mus musculus [2]; [31]): 345 mg/kg

NS(=O)(=O)NCc1coc2ccccc12
Activity (Mus musculus [1]): inactive | Activity (Mus musculus [9]): inactive | Activity (Mus musculus [6]): Active | ED50 (Mus musculus [2]; [31]): > 400 mg/kg | Activity (Mus musculus [27]): Non-toxic

NC(=O)N1c2ccccc2C=Cc2ccccc21
Activity (Rattus norvegicus [28]): Active

Cc1oc2ccccc2c1CNS(N)(=O)=O
Activity (Mus musculus [9]): inactive

Cc1ccc2scc(CNS(N)(=O)=O)c2c1
ED50 (Mus musculus [2]; [31]): > 400 mg/kg | IC50 (Carbonic anhydrase 2 [10]): 45 µM | inhibition (Carbonic anhydrase 2 [29]): 44%

CC[C@@H](C(N)=O)N1CCCC1=O
ED50 (Mus musculus [13]; Mus musculus, CF1, ip, 0.25 h, read-out: ED50): > 540 mg/kg

CCCCNS(N)(=O)=O
Activity (Mus musculus [30]): inactive

NS(=O)(=O)NCc1cccc2ccccc12
ED50 (Mus musculus [2]; [31]): 123 mg/kg

Nc1nnc(-c2cccc(Cl)c2Cl)c(N)n1 [LAMOTRIGINE]
IC50 [24]: 35 µM

NS(=O)(=O)NCc1csc2ccc(Br)cc12
IC50 (Carbonic anhydrase 2 [10]): 100 µM

NS(=O)(=O)NCc1c[nH]c2ccccc12
Activity (Mus musculus [9]): inactive | IC50 (Carbonic anhydrase 2 [10]): 300 µM

— ChEMBL document CHEMBL1153762, “Novel, broad-spectrum anticonvulsants containing a sulfamide group: advancement of N-((benzo[b]thien-3-yl)methyl)sulfamide (JNJ-26990990) into human clinical studies” (J Med Chem, 2009)
